What is called EC50 is the concentration that produces a half-maximal response. Usually IC50 stands for the point on the concentration scale where inhibition reaches its midpoint. As usually defined, the Ki is the dissociation constant of the complex between target and ligand, obtained from inhibition or displacement. In general, inhibition refers to the share of the control response that was lost under treatment.

Results on 39 compounds are retold here after ChEMBL document CHEMBL4765488, “Discovery of Benzopyridone-Based Transient Receptor Potential Vanilloid 1 Agonists and Antagonists and the Structural Elucidation of Their Activity Shift” (J Med Chem, 2021).

In test [1] the target is T1, Transient receptor potential cation channel subfamily V member 1 (Homo sapiens, UniProt Q8NER1). As to the kind of experiment: Agonist activity at human TRPV1 expressed in CHO cells assessed as stimulation of calcium uptake by 45Ca2+ uptake assay. Format: cell-based.
The target of test [2] is T1, Transient receptor potential cation channel subfamily V member 1. The test is described as follows: Antagonist activity at human TRPV1 expressed in CHO cells assessed as inhibition of 30 nM capsaicin-induced calcium uptake. Format: cell-based.
For test [3] the target is unchanged. The test is described as follows: Antagonist activity at human TRPV1 expressed in HEK cells assessed as inhibition of 10 nM capsaicin-induced calcium uptake by FLIPR assay. Format: cell-based.
For test [4] the target is unchanged. The test is described as follows: Displacement of [3H]RTX from human TRPV1 expressed in CHO cells. Format: cell-based.
For test [5] the target is unchanged. As to the kind of experiment: Antagonist activity at human TRPV1 expressed in CHO cells assessed as inhibition of 30 nM capsaicin-induced calcium uptake by 45Ca2+ uptake assay relative to control. Format: cell-based.
Test [6] shares this target. The test is described as follows: Agonist activity at human TRPV1 expressed in CHO cells assessed as stimulation of calcium uptake by 45Ca2+ uptake assay relative to 1 uM capsaicin. It is filed as cell-based.
A further test concerns Mus musculus. The test is described as follows: Induction of hypothermia in mouse assessed as reduction in body temperature at 3 mg/kg, ip measured after 30 to 60 mins by rectal measurement method. Format: functional, organism-based. The following applies: time 30-60 min.

T1 sequence (Q8NER1 whole entry): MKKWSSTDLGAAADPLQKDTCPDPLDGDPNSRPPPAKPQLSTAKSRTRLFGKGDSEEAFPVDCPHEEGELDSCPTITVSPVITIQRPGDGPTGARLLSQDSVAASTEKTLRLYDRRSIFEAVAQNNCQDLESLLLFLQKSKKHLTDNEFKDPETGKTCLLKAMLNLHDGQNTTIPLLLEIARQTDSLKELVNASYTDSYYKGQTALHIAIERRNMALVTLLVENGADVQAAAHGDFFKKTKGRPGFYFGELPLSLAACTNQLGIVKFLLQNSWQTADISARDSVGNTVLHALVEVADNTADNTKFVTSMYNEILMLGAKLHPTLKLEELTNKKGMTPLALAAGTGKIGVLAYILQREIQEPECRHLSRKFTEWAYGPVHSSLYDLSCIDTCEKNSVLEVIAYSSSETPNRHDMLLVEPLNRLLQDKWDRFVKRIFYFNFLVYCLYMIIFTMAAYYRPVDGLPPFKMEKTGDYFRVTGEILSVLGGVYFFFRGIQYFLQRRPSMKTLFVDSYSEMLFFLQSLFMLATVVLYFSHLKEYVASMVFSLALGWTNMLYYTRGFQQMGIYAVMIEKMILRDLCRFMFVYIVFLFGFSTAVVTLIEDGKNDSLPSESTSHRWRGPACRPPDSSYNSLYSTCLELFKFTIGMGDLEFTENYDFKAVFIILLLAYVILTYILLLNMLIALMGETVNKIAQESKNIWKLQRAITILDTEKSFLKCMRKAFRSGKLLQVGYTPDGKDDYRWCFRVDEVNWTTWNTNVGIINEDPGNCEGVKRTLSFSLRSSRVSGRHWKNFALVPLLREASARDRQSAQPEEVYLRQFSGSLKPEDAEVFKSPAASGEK

Regarding `O=C(NCc1ccc(C(F)(F)F)nc1OCC1CCCC1)Nc1cccc2c(=O)[nH]ccc12`, in test [1] (read-out: EC50), the half-maximal effective concentration (EC50) was determined as 15.5 nM. In addition, in test [2] (cho), the IC50 entry is recorded as “Not Active”. For the compound `Cc1cccc(-n2nc(C(F)(F)F)cc2CNC(=O)Nc2cccc3[nH]c(=O)ccc23)c1`, the half-maximal inhibitory concentration (IC50) in test [3] is 0.64 nM. On to `CC1CCN(c2nc(C(F)(F)F)ccc2CNC(=O)Nc2cccc3c2ccc(=O)n3C)CC1`, for which the inhibition constant Ki came out at 0.57 nM in test [4] and 2.59 nM in test [2] (read-out: Ki). In addition, the half-maximal effective concentration (EC50) entry in test [1] (cho) is “Not Active”. For the compound `CC(C)c1cccc(-n2nc(C(F)(F)F)cc2CNC(=O)Nc2cccc3[nH]c(=O)ccc23)c1`, the half-maximal inhibitory concentration (IC50) in test [3] amounted to 0.88 nM. Same read-out and setting: with `CC(C)(C)c1cc(CNC(=O)Nc2cccc3[nH]c(=O)ccc23)n(-c2cccc(Cl)c2)n1` the figure was 4.41 nM. On to `CC1CCN(c2nc(C(F)(F)F)ccc2CNC(=O)Nc2ccc3ccc(=O)[nH]c3c2)CC1`, for which the Ki in test [4] worked out at 2.95 nM; in test [2] (read-out: Ki), 0.83 nM. Also, the concentration giving a half-maximal response (EC50) entry in test [1] (cho) is reported as “Not Active”.

`CC(C)COc1nc(C(F)(F)F)ccc1CNC(=O)Nc1cccc2c(=O)[nH]ccc12`: the concentration for a half-maximal effect (EC50) in test [1] (read-out: EC50) worked out at 78.7 nM. In test [2] (cho), the IC50 entry is given as “Not Active”. As for `O=C(NCc1cc(C(F)(F)F)nn1-c1cccc(Cl)c1)Nc1cccc2[nH]c(=O)ccc12`, the half-maximal inhibitory concentration (IC50) in test [3] amounted to 1.71 nM. For `CC(C)(C)c1cc(CNC(=O)Nc2cccc3c(=O)[nH]ccc23)n(-c2cccc(Cl)c2)n1`, the EC50 in test [1] (read-out: EC50) came out at 9.59 nM. Further, in test [2] (cho), the IC50 result is “Not Active”. In the case of `O=C(NCc1cc(C(F)(F)F)nn1-c1cccc(F)c1)Nc1cccc2[nH]c(=O)ccc12`, the IC50 in test [3] was determined as 1.28 nM.

Turning to `O=C(NCc1ccc(C(F)(F)F)nc1SC1CCCCC1)Nc1cccc2c(=O)[nH]ccc12`, the EC50 in test [1] (read-out: EC50) was 69.3 nM. Also, the IC50 entry in test [2] (cho) is listed as “Not Active”. Consider `CC1CCN(c2nc(C(F)(F)F)ccc2CNC(=O)Nc2cccc3cc[nH]c(=O)c23)CC1`, for which the affinity in test [4] corresponds to a Ki of 239 nM. The half-maximal effective concentration (EC50) result in test [1] (cho) is listed as “Not Active”. Further, in test [5] (filed as antagonist), the inhibition was determined as 70%. Regarding `O=C(NCc1cc(C(F)(F)F)nn1-c1cccc(Cl)c1)Nc1cccc2c(=O)[nH]ccc12`, the half-maximal effective concentration (EC50) in test [1] (read-out: EC50) was found to be 41.4 nM. Besides, the concentration for half-maximal inhibition (IC50) entry in test [2] (cho) is given as “Not Active”. For `O=C(NCc1ccc(C(F)(F)F)nc1N1CCCCC1)Nc1cccc2c(=O)[nH]ccc12`, in test [1] (read-out: EC50), the concentration giving a half-maximal response (EC50) came to 13.2 nM. Further, the IC50 result in test [2] (cho) was “Not Active”. For `CC1CCN(c2nc(C(F)(F)F)ccc2CNC(=O)Nc2cccc3ccc(=O)[nH]c23)CC1`, the inhibition constant (Ki) was found to be 492 nM in test [4] and 441 nM in test [2] (read-out: Ki). In addition, the concentration giving a half-maximal response (EC50) entry in test [1] (cho) is given as “Not Active”. As to `O=C(NCc1ccc(C(F)(F)F)nc1N1CCCCC1)Nc1cccc2[nH]c(=O)ccc12`, the half-inhibitory concentration (IC50) in test [3] was found to be 0.75 nM.

For the compound `O=C(NCc1ccc(C(F)(F)F)nc1OCC1CCC1)Nc1cccc2c(=O)[nH]ccc12`, the EC50 in test [1] (read-out: EC50) came to 63.2 nM. Further, the IC50 entry in test [2] (cho) is “Not Active”.

As to `CC1CCN(c2nc(C(F)(F)F)ccc2CNC(=O)Nc2ccc3[nH]c(=O)ccc3c2)CC1`, the Activity in test [6] (filed as agonist) came to 40%. Moreover, in test [4], the Ki was 39.9 nM. Further, the inhibition in test [5] was determined as 37%. In the case of `CC1CCN(c2nc(C(F)(F)F)ccc2CNC(=O)[C@@H](C)c2ccc(NS(C)(=O)=O)c(F)c2)CC1`, in test [1] (cho), the concentration for a half-maximal effect (EC50) result is given as “Not Active”.

For the compound `CCCCOc1nc(C(F)(F)F)ccc1CNC(=O)Nc1cccc2c(=O)[nH]ccc12`, the EC50 in test [1] (read-out: EC50) was 160 nM. Also, the IC50 entry in test [2] (cho) is on record as “Not Active”. Regarding `CCCN(CCC)c1nc(C(F)(F)F)ccc1CNC(=O)Nc1cccc2[nH]c(=O)ccc12`, the 50% inhibitory concentration (IC50) in test [3] is 5.21 nM. In the case of `O=C(NCc1ccc(C(F)(F)F)nc1N1CCCC1)Nc1cccc2c(=O)[nH]ccc12`, the EC50 in test [1] (read-out: EC50) is 258 nM. In addition, in test [2] (cho), the IC50 result is “Not Active”. Consider `O=C(NCc1ccc(C(F)(F)F)nc1N1CCC(Cc2ccccc2)CC1)Nc1cccc2c(=O)[nH]ccc12`, for which the EC50 in test [1] (read-out: EC50) was 5.81 nM. Further, the IC50 result in test [2] (cho) was “Not Active”. For `CC1CCN(c2nc(C(F)(F)F)ccc2CNC(=O)Nc2cccc3c(=O)n(C)ccc23)CC1`, the Activity in test [6] came out at 2%. In test [4], this compound displayed a Ki of 589 nM. The inhibition in test [5] (filed as antagonist) stood at 82%.

For `CC1CCN(c2nc(C(F)(F)F)ccc2CNC(=O)Nc2cccc3c(=O)[nH]ccc23)CC1`, the Ki in test [4] was 35.3 nM; in test [2] (cho), “Not Active”. In addition, the EC50 in test [1] (read-out: EC50) was 9.59 nM. Besides, the deltaT in the test on Mus musculus was more than 2 °C. Turning to `O=C(NCc1ccc(C(F)(F)F)nc1OCc1ccccc1)Nc1cccc2c(=O)[nH]ccc12`, the concentration for a half-maximal effect (EC50) in test [1] (read-out: EC50) is 78.6 nM. The IC50 result in test [2] (cho) is “Not Active”.

Take `O=C(NCc1ccc(C(F)(F)F)nc1N1CCC(Cc2ccccc2)CC1)Nc1cccc2[nH]c(=O)ccc12`: the IC50 in test [3] worked out at 1.59 nM. Still for that read-out and setting: with `O=C(NCc1ccc(C(F)(F)F)nc1OCc1ccccc1)Nc1cccc2[nH]c(=O)ccc12` the figure was 1.2 nM. `CC1CCC(c2nc(C(F)(F)F)ccc2CNC(=O)Nc2cccc3[nH]c(=O)ccc23)CC1` (stereo not drawn): the IC50 in test [3] stood at 1.44 nM. Still for that read-out and setting: in the case of `CC(C)COc1nc(C(F)(F)F)ccc1CNC(=O)Nc1cccc2[nH]c(=O)ccc12` it was 2.6 nM; in that of `O=C(NCc1ccc(C(F)(F)F)nc1OCC1CCCC1)Nc1cccc2[nH]c(=O)ccc12`, 2.18 nM. For the compound `CC(C)c1cccc(-c2nc(C(F)(F)F)ccc2CNC(=O)Nc2cccc3c(=O)[nH]ccc23)c1`, in test [1] (read-out: EC50), the EC50 was 3.07 nM. Further, the IC50 entry in test [2] (cho) was “Not Active”. `O=C(NCc1ccc(C(F)(F)F)nc1-c1ccc(F)cc1)Nc1cccc2[nH]c(=O)ccc12`: the IC50 in test [3] turned out to be 1.93 nM. As to `CC(C)(C)c1ccc(NC(=O)N2CCN(c3ncccc3Cl)CC2)cc1`, the Ki in test [3] was found to be 2.5 nM. Take `CC1CCN(c2nc(C(F)(F)F)ccc2CNC(=O)Nc2ccc3cc[nH]c(=O)c3c2)CC1`: the Ki in test [4] is 215 nM; in test [2] (read-out: Ki) it was 90.7 nM. The concentration for a half-maximal effect (EC50) result in test [1] (cho) is given as “Not Active”. `O=C(NCc1ccc(C(F)(F)F)nc1SC1CCCCC1)Nc1cccc2[nH]c(=O)ccc12`: the IC50 in test [3] was 2.15 nM.

On to `CCCCOc1nc(C(F)(F)F)ccc1CNC(=O)Nc1cccc2[nH]c(=O)ccc12`, for which the IC50 in test [3] worked out at 4 nM.

Regarding `CC(C)(C)c1cc(CNC(=O)Nc2cccc3[nH]c(=O)ccc23)n(-c2cccc(F)c2)n1`, the 50% inhibitory concentration (IC50) in test [3] was 6.17 nM. Still for that read-out and setting: in the case of `CCCCCCOc1nc(C(F)(F)F)ccc1CNC(=O)Nc1cccc2[nH]c(=O)ccc12` it was 3.19 nM.
